Measured values from patent US20230355599A1, “BIOMARKERS FOR CBL, AND COMPOSITIONS AND METHODS FOR THEIR USE” (NURIX THERAPEUTICS, INC., priority 2022, published 2023).

Experiments:
[1] = tested on: pY180/pY511-ITK; experiment: Phosphoprotein screen in human whole blood with CBL inhibitor at 10 uM: ITK; format: cell-based; conditions: 1 hr 37° C., human whole blood 8 donors, anti-CD3/CD28 + crosslinker 60 minutes
Experimental: (§1) To identify proximal biomarkers of CBL-B inhibition in immune cells, a panel of phosphorylated proteins were screened in human whole blood incubated with CBL-B inhibitor and concomitant anti-CD3 and anti-CD28 antibodies. The effect of CBL-B inhibition was assessed across multiple cellular signaling networks.
(§2) Human heparinized whole blood from 8 donors was received after an overnight shipment at 4° C. The blood was plated, treated with CBL inhibitor at 10 uM and incubated at 37° C. for 60 minutes. After incubation, the cells were stimulated with anti-CD3/CD28 followed by a cross-linking antibody (30 μg of goat anti-mouse IgG (H+L) antibody (Invitrogen)). After 60 minutes, the cells were fixed, and stained using surface markers for T cells (CD3^+CD4^+& CD3^+CD8^+) and analyzed by flow cytometry for target phosphorylation of the following markers: pY180/pY511-ITK, pY397-HS1, pY759-PLCg2, pY783-PLCg1, pY525/pY526/pY348-SYK & pY319-Zap70.
(§3) Fold change of each biomarker was calculated with the following example equation: […]
(§4) Whole blood from eight human donors was collected in sodium heparin anti-coagulant treated with 10 μM of Compound 23 for 1 hr at 37° C. […] Fold change of % phosphorylation normalized to DMSO was quantitated in T cells (CD8^+) using flow cytometry is provided in FIGS. 6A-6B.

[2] = tested on: pY319-Zap70; experiment: Phosphoprotein screen in human whole blood with CBL inhibitor at 10 uM: ZAP70; format: cell-based; conditions: 1 hr 37° C., human whole blood 8 donors, anti-CD3/CD28 + crosslinker 60 minutes
Experimental: as §1, §2, §3, §4

[3] = tested on: phosphorylated HS1; experiment: HS1 phosphorylation in stimulated CD8+ T cells of mice after a single oral dose (flow cytometry); format: in vivo
Experimental: To assess the in vivo effects of Compound 23 on candidate clinical proximal biomarkers of CBL-B inhibition and compare them to anti-tumor efficacy, two experiments were performed in mice. In the first experiment, whole blood was obtained from groups of mice (n=4 per group) administered a single oral dose of either vehicle (0.5% MC/0.2% polysorbate 80 in deionized water) or increasing doses of Compound 23 at 0.3, 1, 3, 10, 30, or 90 mg/kg. The response to Compound 23 on HS1 activation was measured in anti-CD3 and anti-CD28 stimulated CD8^+ T cells using flow cytometry. Compound 23 induced a dose-dependent increase in the proportion of phosphorylated HS1^+CD8^+ in the presence of anti-CD3 and anti-CD28 co-stimulation. The greatest induction of phosphorylated HS1 was observed upon ex vivo stimulation following administration of Compound 23 doses of ≥10 mg/kg. […] Statistical significance was calculated using 2-way ANOVA with Dunnett's multiple comparisons test.

[4] = tested on: phosphorylated ZAP70; experiment: Phosphorylated ZAP70 in circulating CD8+ T cells of patients, Phase 1 trial (flow cytometry); format: in vivo, human
Experimental: [The procedure below names another target; the source lists this target under the same test.] Pharmacodynamic analysis of the proximal biomarker, phosphorylated HS1 is assessed in circulating CD8^+ T cells from patients that are being administered doses ranging from 5 to 50 mg of Compound 23 once daily and is being used to assess target engagement of Compound 23 as part of the dose/exposure-response profile. Whole blood is collected longitudinally and added into two types of TruCulture (Myriad) tubes. One tube contains media, and the second tube contains anti-CD3 and anti-CD28, which are subsequently crosslinked to induce cellular stimulation for pharmacodynamic analysis. Phosphorylated HS1 is assessed by flow cytometry pre and post dose on Cycle 1 Day 1 (C1D1) and Cycle 2 Day 1 (C2D1) to characterize single/multiple dose PD profiles.
% Maximal phosphorylated signal and % AUC are two commonly used parameters to assess the pharmacodynamic effects of drugs.
% Maximal phosphorylated signal refers to the maximum amount of a specific protein that becomes phosphorylated (i.e., modified by the addition of a phosphate group) in response to a drug or other stimulus. This parameter is often used to measure the activation of signaling pathways that are important for various cellular processes, including cell growth and differentiation, immune response, and metabolism.
% AUC, on the other hand, refers to the area under the curve (AUC) over time, expressed as a percentage of the maximum possible AUC. In summary, both % maximal phosphorylated signal and % AUC are useful parameters to assess the pharmacodynamic effects of drugs. % maximal phosphorylated signal is a measure of the activation of signaling pathways, while % AUC reflects the duration of the effect on PD signals. Both parameters can be used to evaluate the potency and duration of a drug's pharmacodynamic effects.

[5] = tested on: pY397-HS1; experiment: Phosphoprotein screen in human whole blood with CBL inhibitor at 10 uM: HS1; format: cell-based; conditions: 1 hr 37° C., human whole blood 8 donors, anti-CD3/CD28 + crosslinker 60 minutes
Experimental: as §1, §2, §3, §4

[6] = tested on: pY525/pY526/pY348-SYK; experiment: Phosphoprotein screen in human whole blood with CBL inhibitor at 10 uM: SYK; format: cell-based; conditions: 1 hr 37° C., human whole blood 8 donors, anti-CD3/CD28 + crosslinker 60 minutes
Experimental: as §1, §2, §3, §4

[7] = 5 mg once daily, n=1, cycle 1, day 1
[8] = 15 mg once daily, n=12, cycle 1, day 1
[9] = 25 mg once daily, n=7, cycle 1, day 1
[10] = 50 mg once daily, n=2, cycle 1, day 1

For `C[C@H]1CCCN(Cc2cc3c(c(C(F)(F)F)c2)CN(c2cccc([C@]4(c5nncn5C)C[C@@H](C)C4)c2)C3=O)C1` [Compound 23], the “increased phosphorylation of ITK compared to DMSO control” value [1] was 3-4 fold, the “increased phosphorylation of ZAP70 compared to DMSO control” value [2] was 2-3 fold and the “proximal biomarker pHS1 that correlates with the efficacious range” value ([3]; pHS1+CD8+ T cells, mouse syngeneic tumor models, therapeutic range) was “approximately 50%”. The “minimum biological effect level observed in mice (EC50), phosphorylated HS1+ CD8+” value ([3]; single oral dose 0.3-90 mg/kg, anti-CD3 and anti-CD28 stimulated CD8+ T cells) was 12 mg/kg, the “doses giving the greatest induction of phosphorylated HS1” value ([3]; single oral dose, ex vivo stimulation) was ≥ 10 mg/kg and the “% of phosphorylated ZAP70 expressing CD8+ T cells (maximal)” value [4, 7] was 47%. For the same compound, the “phosphorylated ZAP70 AUC” value [4, 7] was 734, the “% of phosphorylated ZAP70 expressing CD8+ T cells (maximal)” value [4, 8] was 83% and the “phosphorylated ZAP70 AUC” value [4, 8] was 1641. For the same compound, the “% of phosphorylated ZAP70 expressing CD8+ T cells (maximal)” value [4, 9] was 82%, the “phosphorylated ZAP70 AUC” value [4, 9] was 1506 and the “% of phosphorylated ZAP70 expressing CD8+ T cells (maximal)” value [4, 10] was 85%. The “phosphorylated ZAP70 AUC” value [4, 10] was 1870, the “trend of maximal % pZAP70 with PK” value ([4]; not statistically significant, p=0.06) was “Positive trend” and the “increased phosphorylation of HS1 compared to DMSO control” value [5] was 3-4 fold. The “increased phosphorylation of SYK compared to DMSO control” value [6] was 2-3 fold.
